Data from US7772434B2, “Crystalline form of a β2 adrenergic receptor agonist” (Theravance, Inc., priority 2003, dated 2010).
Structures can show the parent of a compound that is named as a salt.

Experiments:
[1] = Hygroscopicity / deliquescence on exposure to the atmosphere at high relative humidity; format: physicochemical; conditions: exposed to the atmosphere for prolonged periods at high relative humidity
[2] = Solid state stability testing (storage at elevated temperature and humidity); format: physicochemical
Protocol: Samples (250 mg each) of the monoHCl salt of Examples 9 and 10 were stored at 40° C. and 75% relative humidity in open containers and in closed containers. Additional samples (100 mg each) of the monoHCl salt were stored at 50° C. in closed containers. […] Water percentage of the samples stored at 40° C. was less than 0.25% after two and four weeks of storage.
The differential scanning calorimetry trace of Example 14, shown in FIG. 2 was obtained with a TA instruments model DSC2010. Samples were placed in sealed aluminum pans for analysis with an empty pan serving as the reference. Samples were equilibrated at 30° C. and heated at 5° C. per minute to a temperature of 300° C. The instrument was calibrated with an indium standard.
Thermogravimetric analysis was conducted using a TA instruments model Q50. Samples were weighed in aluminum pans and heated from 50° C. to 300° C. at a rate of 10° C./min.
HPLC analysis was conducted using a MAC MOD Ace-5, C18, 25 cm×4.6 mm, 5 μm column, equilibrated at 30° C. The mobile phases used were: A: 0.1% TFA in 98:2 water:acetonitrile; and B: 0.1% TFA in 10:90 water:acetonitrile. Detection was by UV absorbance at 244 nm. The initial condition was 6% phase B. A flow rate of 1.0 mL/min and gradients of 6 to 30% B over 25 min, 30% to 60% B in 10 min and 60% to 100% B in 2 min were utilized. The monoHCl salt of compound 1 gave a retention time of 19.1 min.
Water content was determined by coulometric Karl Fischer titration using a Brinkman Metrohm Karl Fischer Model 831 coulometer.

[3] = all storage conditions: 40° C. and 75% relative humidity in open and closed containers, 50° C. in closed containers, after four weeks

hygroscopicity / deliquescence [1]: neither hygroscopic nor deliquescent
analysis by DSC and TGA [2, 3]: no detectable differneces
change in the appearance of the material [2, 3]: no observable change
chemical degradation, analysis by HPLC [2, 3]: no detectable chemical degradation
thermal stability ([2]; at elevated temperatures): thermally stable
analysis by DSC ([2]; four weeks at 40° C. and 75% humidity in open and closed containers and at 50° C. in a closed container): no detectable difference
chemical degradation, analysis by HPLC ([2]; four weeks at 40° C. and 75% humidity in open and closed containers and at 50° C. in a closed container, summary statement): no appreciable chemical degradation
Water percentage of the samples ([2]; samples stored at 40° C. (75% relative humidity), after two and four weeks of storage, Karl Fischer): less than 0.25%
SMILES: O=CNc1cc([C@@H](O)CNCCc2ccc(NC[C@H](O)c3ccccc3)cc2)ccc1O [monohydrochloride salt of compound 1, N-{2-[4-((R)-2-hydroxy-2-phenylethylamino)phenyl]ethyl}-(R)-2-hydroxy-2-(3-formamido-4-hydroxyphenyl)ethylamine monohydrochloride]
